Data as given in PMC5955414, “PKD1 is a potential biomarker and therapeutic target in triple-negative breast cancer” (Oncotarget, 2018).

How the values were obtained:
[1] = tested on: MCF7 chemoresistant xenografts; set-up: method as in PMID 26895471; conditions: cited from earlier work
PKD3 [2] = molecular target: T1, PKD3 (Homo sapiens, UniProt O94806); set-up: method as in PMID 20497126, PMID 20442301, PMID 18829454, PMID 21617763, PMID 20444281; conditions: cited from earlier work
T1 sequence (O94806 1-890): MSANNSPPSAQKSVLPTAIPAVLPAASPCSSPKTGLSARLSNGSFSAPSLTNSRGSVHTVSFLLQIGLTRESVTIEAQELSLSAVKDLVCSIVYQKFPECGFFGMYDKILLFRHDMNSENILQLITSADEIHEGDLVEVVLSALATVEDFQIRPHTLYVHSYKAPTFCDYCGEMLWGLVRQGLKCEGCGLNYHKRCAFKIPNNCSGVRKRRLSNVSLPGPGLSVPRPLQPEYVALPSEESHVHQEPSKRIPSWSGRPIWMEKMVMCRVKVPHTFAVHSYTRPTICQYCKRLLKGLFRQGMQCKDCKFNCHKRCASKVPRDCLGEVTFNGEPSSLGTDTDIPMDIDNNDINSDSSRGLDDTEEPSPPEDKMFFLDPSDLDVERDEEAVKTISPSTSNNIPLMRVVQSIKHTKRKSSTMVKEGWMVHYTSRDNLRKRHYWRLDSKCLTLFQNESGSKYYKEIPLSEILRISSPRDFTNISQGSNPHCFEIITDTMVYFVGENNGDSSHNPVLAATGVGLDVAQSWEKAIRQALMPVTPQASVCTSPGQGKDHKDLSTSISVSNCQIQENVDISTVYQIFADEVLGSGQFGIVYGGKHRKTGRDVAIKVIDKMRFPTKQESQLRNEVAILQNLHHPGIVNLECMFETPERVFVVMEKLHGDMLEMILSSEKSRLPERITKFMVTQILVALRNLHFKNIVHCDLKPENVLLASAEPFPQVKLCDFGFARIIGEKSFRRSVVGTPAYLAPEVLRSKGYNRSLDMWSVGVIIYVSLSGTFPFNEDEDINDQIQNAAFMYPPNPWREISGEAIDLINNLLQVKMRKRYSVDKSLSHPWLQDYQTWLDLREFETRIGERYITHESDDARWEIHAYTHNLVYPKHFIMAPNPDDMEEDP

PKD3 [3] = molecular target: T1, PKD3; assay: In vitro kinase inhibitory activity, PKD3; format: biochemical; conditions: AB9275: at concentrations inhibiting PKD1; compared with PKD1
Description: (§1) Supplementary Figure 5: Specificity of the AB9275 PKD1 inhibitor. (A) Comparison of in vitro kinase inhibitory activities
(§2) between AB9275 and different PKD1 inhibitors.
(§3) CRT0066101. Other IC50s were obtained from the literature (as indicated). (B) Kinome selectivity profile of the AB9275 compound. The
(§4) CA). AB9275 was screened at 1 μM.

PKCα [4] = molecular target: T2, PKCα (Homo sapiens, UniProt P17252); set-up: method as in PMID 20497126, PMID 20442301, PMID 18829454, PMID 21617763, PMID 20444281; conditions: cited from earlier work
PKCα [5] = molecular target: T2, PKCα; assay: In vitro kinase inhibitory activity, PKCα; format: biochemical; conditions: AB9275: at concentrations inhibiting PKD1
Description: as §1, §2, §3, §4

PKCβ [6] = molecular target: T3, PKCβ (Homo sapiens, UniProt P05771); assay: In vitro kinase inhibitory activity, PKCβ; format: biochemical; conditions: AB9275: at concentrations inhibiting PKD1
T3 sequence (P05771 whole entry, species assumed): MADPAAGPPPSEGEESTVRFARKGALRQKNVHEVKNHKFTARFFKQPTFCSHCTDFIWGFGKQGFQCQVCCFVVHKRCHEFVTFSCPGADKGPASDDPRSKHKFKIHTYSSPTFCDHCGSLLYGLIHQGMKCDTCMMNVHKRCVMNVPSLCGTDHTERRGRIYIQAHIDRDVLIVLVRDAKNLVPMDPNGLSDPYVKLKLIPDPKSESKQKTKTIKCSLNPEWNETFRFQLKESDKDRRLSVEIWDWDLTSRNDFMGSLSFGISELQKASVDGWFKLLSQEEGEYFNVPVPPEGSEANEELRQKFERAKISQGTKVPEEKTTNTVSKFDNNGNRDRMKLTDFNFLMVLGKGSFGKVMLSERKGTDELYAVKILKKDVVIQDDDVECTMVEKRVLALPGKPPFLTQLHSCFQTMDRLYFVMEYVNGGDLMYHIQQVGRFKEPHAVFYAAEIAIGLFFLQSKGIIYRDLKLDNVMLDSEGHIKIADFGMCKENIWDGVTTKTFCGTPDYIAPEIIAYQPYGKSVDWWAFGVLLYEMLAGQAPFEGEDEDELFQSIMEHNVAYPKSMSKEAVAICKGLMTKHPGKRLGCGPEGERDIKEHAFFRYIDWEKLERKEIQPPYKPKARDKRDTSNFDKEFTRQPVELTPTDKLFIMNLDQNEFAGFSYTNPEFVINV
Description: as §1, §2, §3, §4

PKCβ [7] = molecular target: T3, PKCβ; set-up: method as in PMID 20497126, PMID 20442301, PMID 18829454, PMID 21617763, PMID 20444281; conditions: cited from earlier work

CC[C@@H](N)CNc1ccnc(-c2cc(-c3cnn(C)c3)ccc2O)n1.Cl.Cl [CRT0066101]
Tumor growth of MCF7 chemoresistant xenografts in vivo [1]: able to inhibit tumor growth
Inhibition of PKD3 relative to PKD1 (literature) (PKD3 [2]): similarly inhibit PKD1 and PKD3
Inhibition of PKD3 in vitro (PKD3 [3]): more potent against PKD3

O=C1NCCCc2c1oc1ccc(O)cc21 [CID755673]
Inhibition of PKD3 relative to PKD1 (literature) (PKD3 [2]): similarly inhibit PKD1 and PKD3

Cn1c2ccccc2c2c3c(c4c5ccccc5n(CCC#N)c4c21)CNC3=O [Gö6976]
Inhibition of PKCα (literature) (PKCα [4]): also inhibits
Inhibition of PKCα in vitro (PKCα [5]): strongly inhibited
Inhibition of PKCβ in vitro (PKCβ [6]): strongly inhibited
Inhibition of PKCβ (literature) (PKCβ [7]): also inhibits

CRT5
Inhibition of PKD3 relative to PKD1 (literature) (PKD3 [2]): similarly inhibit PKD1 and PKD3
